Reference: patent US20080230094A1, “METHOD TO INHIBIT GROWTH OF MICROORGANISMS IN AQUEOUS SYSTEMS AND ON SUBSTRATES USING PERSULFATE AND A BROMIDE” (Buckman Laboratories International, Inc., priority 2007, published 2008)

System: Pseudomonas aeruginosa
Experiment: Biocidal efficacy in pulp slurry inoculated with Pseudomonas aeruginosa (plate count, log reduction)
Type: cell-based
Conditions: 1000 ppm as pure compound in pulp slurry; 24 hr incubation
Method: A concentrated solution of active biocidal composition was prepared by mixing 44% (w/v) of aqueous ammonium persulfate with 40% (w/v) aqueous sodium bromide in equal volume. The final mixture contains 22% ammonium persulfate and 20% NaBr at pH 2.2. […] Four hours after mixing, the concentrated solution was diluted with water to contain 5% ammonium persulfate. This diluted solution (5%) was then added to 50 ml pulp slurry to give a biocidal concentration of 10 ppm (as ammonium persulfate) in pulp slurry. The pulp slurry was then inoculated with 3×10^6 cells/ml of Pseudomonas aeruginosa, incubated at room temperature for 24 hr, plated in nutrient agar. The colony forming units per milliliter (cfu/ml) was counted and compared with each individual component acting alone.
The pulp slurry contains white bleached dry pulp at 5 g/L; cationic starch at 10 bl/ton dry pulp; CaCO3 at 300 bl/ton dry pulp; ASA size at 3-4 lb/ton dry pulp; retention aids at 0.5-1.0 bl/ton dry pulp; defoamer at 250 g/ton dry pulp. The pulp slurry has a consistency of about 0.5 to 0.7%. The final pH of the pulp substrate after autoclave is about 8.0.

[Br-].[Na+] [NaBr, sodium bromide]
CFU/ml: 4.2 × 10^6 CFU/ml | Log Reduction: 0.00
